Source: patent publication US11691962B2 (eXIthera Pharmaceuticals, Inc., priority 2018, dated 2023)

Key:
[1] = Caco-2 cell permeability assay; type: in vitro ADME, human; conditions: human, 37° C.; for Papp A→B at 60 min, 10 μM: Caco-2, apical to basolateral; for Papp B→A at 40 min, 10 μM: Caco-2, basolateral to apical
Description: The following procedure was used to determine the ability of a test compound to cross Caco-2 cells (human intestinal epithelial cells derived from a colorectal adenocarcinoma). The cells were seeded at 1×10^5 cells/cm^2 in 96-well Multiscreen™ plates (Millipore). Permeability assays were performed with the cells at days 21-25 post-seeding. Cells are typically used for 15 consecutive passages in culture.
This assay can be performed in either the apical to basolateral (A-B) or basolateral to apical (B-A) direction. The test compound was prepared at 10 μM in HBSS-MES (pH 6.5) or HBSS-HEPES (pH 7.4) with a final DMSO concentration of 1%. The working solution was then centrifuged and the supernatant added to the donor side. The assay plate was incubated at 37° C. with gentle shaking for 60 min or 40 min for the A-B or B-A assay, respectively. Samples were aliquoted from the donor side at time zero and the end point, and from the receiver side at the end point.
Reference compounds, propranolol (highly permeable), labetalol (moderately permeable), ranitidine (poorly permeable), and colchicine (P-glycoprotein substrate) were included in each assay.
Samples are analyzed by HPLC-MS/MS using selected reaction monitoring. The HPLC system consists of a binary LC pump with autosampler, a C-18 column, and a gradient.
The apparent permeability coefficient (Papp) of the test compound (Equation 2) and its recovery (Equation 3) are calculated as follows:
[formula] wherein A is the surface area of the cell monolayer (0.11 cm^2), C is concentration of the test compound expressed as peak area, D denotes donor, and R is receiver. “0”, “mid,” and “end” denote time at zero, mid-point, and end of the incubation, respectively. Δt is the incubation time. V is the volume of the donor or receiver.
This is most likely due to non-specific binding or degradation.

[2] = molecular target: Factor XIa (Homo sapiens (Human), UniProt P03951); assay: Factor XIa enzyme inhibition assay (dose response, fluorogenic AMC substrate); type: biochemical; conditions: read-out: hFXIa IC50
Chain of Factor XIa (P03951 388-625): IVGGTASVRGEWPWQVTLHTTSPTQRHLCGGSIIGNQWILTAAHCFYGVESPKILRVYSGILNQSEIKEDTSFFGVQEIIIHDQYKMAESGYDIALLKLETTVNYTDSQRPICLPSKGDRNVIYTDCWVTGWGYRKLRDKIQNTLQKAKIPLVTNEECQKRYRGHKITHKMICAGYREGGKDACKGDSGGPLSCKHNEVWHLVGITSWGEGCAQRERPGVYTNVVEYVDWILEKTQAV
Chain of Factor XIa (P03951 19-387 partner): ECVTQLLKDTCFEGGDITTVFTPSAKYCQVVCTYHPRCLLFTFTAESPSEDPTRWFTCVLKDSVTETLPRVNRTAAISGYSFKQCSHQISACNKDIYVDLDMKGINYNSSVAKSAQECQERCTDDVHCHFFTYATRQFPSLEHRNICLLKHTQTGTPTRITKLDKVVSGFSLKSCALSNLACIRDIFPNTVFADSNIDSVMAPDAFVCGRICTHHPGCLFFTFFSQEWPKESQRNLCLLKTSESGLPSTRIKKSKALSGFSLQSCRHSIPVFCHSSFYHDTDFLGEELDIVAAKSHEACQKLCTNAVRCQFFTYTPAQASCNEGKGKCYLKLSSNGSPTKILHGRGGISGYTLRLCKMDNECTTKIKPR
Procedure, shortened: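 Human FXIa at 0.25 nM final with 50 μM final PyroGlu-Pro-Arg-AMC in 20 mM Hepes pH 7.4, 150 mM NaCl, 0.02% Tween 20. Two-fold serial compound dilutions; fluorescence read every minute for 30 min at 30° C. IC50 from a four-parameter Hill fit.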

[3] = test system: Trypsin; assay: Dose response assay for protease inhibitors: trypsin; type: biochemical; conditions: selectivity, trypsin over Factor XIa
Procedure, shortened: (§1)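 Fluorogenic AMC-peptide cleavage in 20 mM Hepes pH 7.4, 150 mM NaCl, 0.02% Tween 20; 100 μM stock substrate dilution (Glp-Pro-Arg-AMC for thrombin/trypsin; Pro-Phe-Arg-AMC or Boc-Leu-Gly-Arg-AMC for Factor Xa). Enzyme diluted to 0.5 nM, added last to two-fold compound series; kinetic read at 30° C, 30 min (Factor Xa 60 min); IC50 fitted.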

[4] = molecular target: Factor Xa (Homo sapiens (Human), UniProt P00742); assay: Dose response assay for protease inhibitors: Factor Xa; type: biochemical; conditions: selectivity, Factor Xa over Factor XIa
Chain of Factor Xa (P00742 235-488): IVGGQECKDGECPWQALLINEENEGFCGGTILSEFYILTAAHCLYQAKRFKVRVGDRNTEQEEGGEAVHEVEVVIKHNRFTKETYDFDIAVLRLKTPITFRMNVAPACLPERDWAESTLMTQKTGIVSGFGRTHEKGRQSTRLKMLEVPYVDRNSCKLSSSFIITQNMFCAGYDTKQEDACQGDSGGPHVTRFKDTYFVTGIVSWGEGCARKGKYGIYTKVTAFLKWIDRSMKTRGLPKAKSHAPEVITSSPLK
Chain of Factor Xa (P00742 41-179 partner): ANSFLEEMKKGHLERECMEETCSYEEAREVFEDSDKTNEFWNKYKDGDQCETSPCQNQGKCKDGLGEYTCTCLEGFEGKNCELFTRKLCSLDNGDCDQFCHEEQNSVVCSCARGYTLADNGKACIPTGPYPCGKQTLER
Procedure, shortened: as §1

[5] = molecular target: Thrombin (Homo sapiens (Human), UniProt P00734); assay: Dose response assay for protease inhibitors: thrombin; type: biochemical; conditions: selectivity, thrombin over Factor XIa
Procedure, shortened: as §1

Papp A→B at 60 min, 10 μM [1] [×10⁻⁶ cm/s]	Papp B→A at 40 min, 10 μM [1] [×10⁻⁶ cm/s]	IC50 [2] [nM]	Ratio: FXa/FXIa [4]	Ratio: Thrombin/FXIa [5]	Structure (SMILES)	Ratio: Trypsin/FXIa [3]
< 10	11 to 30	< 10	H (“H” indicates 101-1000)	H (“H” indicates 101-1000)	CC[C@@H](NC(=O)N1C(=O)[C@H](Cc2ccnc(N)c2)[C@H]1C(=O)N(C)c1cnn(C)c1)c1cccc(Cl)c1 [Compound 1-11, (2S,3R)-3-((2-aminopyridin-4-yl)methyl)-N2-(1-methyl-1H-pyrazol-4-yl)-N1-((R)-1-(3-chlorophenyl)propyl)-N2-methyl-4-oxoazetidine-1,2-dicarboxamide]	G (“G” indicates 1-100)
11 to 30	11 to 30	< 10	H (“H” indicates 101-1000)	H (“H” indicates 101-1000)	CC[C@@H](NC(=O)N1C(=O)[C@H](Cc2ccnc(N)c2)[C@H]1C(=O)N(C)c1ccsc1)c1ccccc1 [Compound 1-9, (2S,3R)-3-((2-aminopyridin-4-yl)methyl)-N2-(thiophen-3-yl)-N1-((R)-1-phenylpropyl)-N2-methyl-4-oxoazetidine-1,2-dicarboxamide]	G (“G” indicates 1-100)
–	–	< 10	I (“I” indicates > 500)	H (“H” indicates 101-1000)	CC[C@@H](NC(=O)N1C(=O)[C@H](Cc2ccnc(N)c2)[C@H]1C(=O)N(C)c1nccn1C)c1ccc(F)cc1 [Compound 1-98, (2S,3R)-3-((2-aminopyridin-4-yl)methyl)-N2-(1-methyl-1H-imidazol-2-yl)-N1-((R)-1-(4-fluorophenyl)propyl)-N2-methyl-4-oxoazetidine-1,2-dicarboxamide]	G (“G” indicates 1-100)
–	–	< 10	I (“I” indicates > 500)	H (“H” indicates 101-1000)	CC[C@@H](NC(=O)N1C(=O)[C@H](Cc2ccnc(N)c2)[C@H]1C(=O)N(C)c1ccn(C)n1)c1cc(F)ccc1F [Compound 1-123, (2S,3R)-3-((2-aminopyridin-4-yl)methyl)-N2-(1-methyl-1H-pyrazol-3-yl)-N1-((R)-1-(2,5-difluorophenyl)propyl)-N2-methyl-4-oxoazetidine-1,2-dicarboxamide]	G (“G” indicates 1-100)
–	–	< 10	H (“H” indicates 101-1000)	H (“H” indicates 101-1000)	CC[C@@H](NC(=O)N1C(=O)[C@H](Cc2cc(C)nc(N)c2)[C@H]1C(=O)N(C)c1nccn1C)c1ccc(C)c(C)c1 [Compound 1-109, (2S,3R)-3-((2-amino-6-methylpyridin-4-yl)methyl)-N2-(1-methyl-1H-imidazol-2-yl)-N1-((R)-1-(3,4-dimethylphenyl)propyl)-N2-methyl-4-oxoazetidine-1,2-dicarboxamide]	G (“G” indicates 1-100)
–	–	< 10	I (“I” indicates > 500)	H (“H” indicates 101-1000)	CC[C@@H](NC(=O)N1C(=O)[C@H](Cc2ccnc(N)c2)[C@H]1C(=O)N(C)c1nccn1C)c1ccc(C)cc1 [Compound 1-87, (2S,3R)-3-((2-aminopyridin-4-yl)methyl)-N2-(1-methyl-1H-imidazol-2-yl)-N1-((R)-1-(4-methylphenyl)propyl)-N2-methyl-4-oxoazetidine-1,2-dicarboxamide]	G (“G” indicates 1-100)
–	–	10 to 100	H (“H” indicates 101-1000)	H (“H” indicates 101-1000)	CC[C@@H](NC(=O)N1C(=O)[C@H](Cc2ccnc(NC)c2)[C@H]1C(=O)N(C)c1ccn(C)n1)c1cccc(Cl)c1 [Compound 1-37, (2S,3R)-3-((2-methylaminopyridin-4-yl)methyl)-N2-(1-methyl-1H-pyrazol-3-yl)-N1-((R)-1-(3-chlorophenyl)propyl)-N2-methyl-4-oxoazetidine-1,2-dicarboxamide]	G (“G” indicates 1-100)
–	–	< 10	I (“I” indicates > 500)	H (“H” indicates 101-1000)	CC[C@@H](NC(=O)N1C(=O)[C@H](Cc2cc(C)nc(N)c2)[C@H]1C(=O)N(C)c1ccn(C)n1)c1cc(C)ccc1F [Compound 1-143, (2S,3R)-3-((2-amino-6-methylpyridin-4-yl)methyl)-N2 (1-methyl-1H-pyrazol-3-yl)-N1-((R)-1-(2-fluoro-5-methylphenyl)propyl)-N2-methyl-4-oxoazetidine-1,2-dicarboxamide]	G (“G” indicates 1-100)
–	–	< 10	I (“I” indicates > 500)	I (“I” indicates > 500)	CC[C@@H](NC(=O)N1C(=O)[C@H](Cc2ccnc(N)c2)[C@H]1C(=O)N(C)c1ccnn1C)c1ccc(F)c(C)c1F [Compound 1-200]	H (“H” indicates 101-1000)
–	–	< 10	I (“I” indicates > 500)	I (“I” indicates > 500)	CC[C@@H](NC(=O)N1C(=O)[C@H](Cc2cc(C)nc(N)c2)[C@H]1C(=O)N(C)c1ccnn1C)c1cc(F)ccc1F [Compound 1-163, (2S,3R)-3-((2-amino-6-methylpyridin-4-yl)methyl)-N2-(1-methyl-1H-pyrazol-5-yl)-N1-((R)-1-(2,5-difluorophenyl)propyl)-N2-methyl-4-oxoazetidine-1,2-dicarboxamide]	G (“G” indicates 1-100)
–	–	< 10	H (“H” indicates 101-1000)	H (“H” indicates 101-1000)	CC[C@@H](NC(=O)N1C(=O)[C@H](Cc2ccnc(N)c2)[C@H]1C(=O)N(C)c1nccn1C)c1cc(C)ccc1C [Compound 1-99, (2S,3R)-3-((2-aminopyridin-4-yl)methyl)-N2-(1-methyl-1H-imidazol-2-yl)-N1-((R)-1-(2,5-dimethylphenyl)propyl)-N2-methyl-4-oxoazetidine-1,2-dicarboxamide]	G (“G” indicates 1-100)
–	–	< 10	H (“H” indicates 101-1000)	G (“G” indicates 1-100)	CCc1cccc([C@@H](CC)NC(=O)N2C(=O)[C@H](Cc3ccnc(N)c3)[C@H]2C(=O)N(C)c2cnn(C)c2)c1 [Compound 1-16, (2S,3R)-3-((2-aminopyridin-4-yl)methyl)-N2-(1-methyl-1H-pyrazol-4-yl)-N1-((R)-1-(3-ethylphenyl)propyl)-N2-methyl-4-oxoazetidine-1,2-dicarboxamide]	G (“G” indicates 1-100)
